Measurements reported in patent US7872018B2, “Compounds and methods for kinase modulation, and indications therefor” (Plexxikon, Inc., priority 2006, dated 2011).

Legend:
Kdr = Kdr (Homo sapiens, UniProt P35968); experiment: Kdr kinase activity assay; format: biochemical; conditions: under the test conditions employed; read-out: IC50 toward kinase Kdr
Fms = target: T1, Fms (Homo sapiens, UniProt P07333); experiment: Fms biochemical assay (AlphaScreen or 33P-ATP); conditions: under the test conditions employed; read-out: IC50 toward kinase Fms
T1 construct: purchased Upstate Biotech 14-551
Excerpt: Each sample was at 5% DMSO.

FGFR = FGFR (Homo sapiens, UniProt P11362); experiment: FGFR kinase activity assay; format: biochemical; conditions: under the test conditions employed; read-out: IC50 toward kinase FGFR
c-Raf-1 = c-Raf-1 (Homo sapiens, UniProt P04049); experiment: c-Raf-1 kinase activity assay; format: biochemical; conditions: under the test conditions employed; read-out: IC50 toward kinase c-Raf-1
Kit = target: T2, Kit (Homo sapiens, UniProt P10721); experiment: c-kit biochemical assay (AlphaScreen or 33P-ATP); conditions: under the test conditions employed; read-out: IC50 toward kinase Kit
T2 construct: P1332.N6 BI PTP KIT M552-K948-X COD; made in house; host or cells: E. coli BL21(DE3)RIL, co-expressed with PTP1B
Procedure, shortened: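 Kinase activity read by AlphaScreen or 33P-ATP incorporation, with c-kit enzyme at 1 ng per sample. The enzyme was either commercial or a recombinant human kit construct made from a gene-synthesized coding sequence.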

Flt1 = Flt1 (Homo sapiens, UniProt P17948); experiment: Flt1 kinase activity assay; format: biochemical; conditions: under the test conditions employed; read-out: IC50 toward kinase Flt1
B-Raf V600E = B-Raf V600E (Homo sapiens, UniProt P15056, V600E); experiment: B-Raf V600E kinase activity assay; format: biochemical; conditions: under the test conditions employed; read-out: IC50 toward kinase B-Raf V600E
B-Raf = B-Raf (Homo sapiens, UniProt P15056); experiment: B-Raf kinase activity assay; format: biochemical; conditions: under the test conditions employed; read-out: IC50 toward kinase B-Raf
Fak = Fak (Homo sapiens, UniProt Q05397); experiment: Fak kinase activity assay; format: biochemical; conditions: under the test conditions employed; read-out: IC50 toward kinase Fak
Btk = Btk (Homo sapiens, UniProt Q06187); experiment: Btk kinase activity assay; format: biochemical; conditions: under the test conditions employed; read-out: IC50 toward kinase Btk
HGK = HGK (Homo sapiens, UniProt O95819); experiment: HGK (MAP4K4) biochemical assay (AlphaScreen); conditions: under the test conditions employed; read-out: IC50 toward kinase HGK
Procedure, shortened: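 AlphaScreen kinase assay with 0.5 ng MAP4K4 per sample and 10 nM biotin-ERM substrate, reacted 40 min at room temperature. Stopped with EDTA buffer containing phospho-ERM antibody (1:1000) plus donor and protein A acceptor beads (1 μg/ml final); signal tracks substrate phosphorylation.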

TrkA = target: T3, TrkA (Homo sapiens, UniProt P04629); experiment: TrkA biochemical assay (AlphaScreen); conditions: under the test conditions employed; read-out: IC50 toward kinase TrkA
T3 construct: purchased Upstate Biotech 14-571
Method: Compounds tested were dissolved in DMSO (1 μL) and added to a white 384-well plate (Costar #3705). […] Each sample was at 5% DMSO. The plate was then incubated for 40 minutes at room temperature.

Measured: IC50

FGFR, sequence (P11362 22-822): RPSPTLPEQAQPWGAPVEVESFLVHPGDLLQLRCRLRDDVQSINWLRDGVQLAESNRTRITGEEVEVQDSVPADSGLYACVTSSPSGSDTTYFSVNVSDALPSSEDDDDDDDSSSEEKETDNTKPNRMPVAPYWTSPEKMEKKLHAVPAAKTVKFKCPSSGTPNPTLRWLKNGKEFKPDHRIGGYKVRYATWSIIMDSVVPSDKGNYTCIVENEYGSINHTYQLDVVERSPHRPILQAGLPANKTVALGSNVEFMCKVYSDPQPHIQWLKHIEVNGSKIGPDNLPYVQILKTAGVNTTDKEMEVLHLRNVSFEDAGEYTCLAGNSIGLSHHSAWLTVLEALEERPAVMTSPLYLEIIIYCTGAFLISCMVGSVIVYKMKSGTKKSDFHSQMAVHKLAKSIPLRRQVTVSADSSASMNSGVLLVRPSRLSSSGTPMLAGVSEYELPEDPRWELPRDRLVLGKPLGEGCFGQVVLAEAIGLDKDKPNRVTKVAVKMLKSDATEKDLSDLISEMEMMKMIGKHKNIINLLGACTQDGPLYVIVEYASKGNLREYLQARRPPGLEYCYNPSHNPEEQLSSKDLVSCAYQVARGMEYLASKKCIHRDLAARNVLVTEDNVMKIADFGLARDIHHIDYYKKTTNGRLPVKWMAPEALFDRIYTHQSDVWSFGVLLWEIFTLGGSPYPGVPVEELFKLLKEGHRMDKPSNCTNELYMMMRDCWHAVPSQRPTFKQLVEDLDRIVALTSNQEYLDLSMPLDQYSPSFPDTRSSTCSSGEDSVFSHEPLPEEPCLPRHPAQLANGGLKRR
B-Raf V600E, sequence (P15056 whole entry V600E): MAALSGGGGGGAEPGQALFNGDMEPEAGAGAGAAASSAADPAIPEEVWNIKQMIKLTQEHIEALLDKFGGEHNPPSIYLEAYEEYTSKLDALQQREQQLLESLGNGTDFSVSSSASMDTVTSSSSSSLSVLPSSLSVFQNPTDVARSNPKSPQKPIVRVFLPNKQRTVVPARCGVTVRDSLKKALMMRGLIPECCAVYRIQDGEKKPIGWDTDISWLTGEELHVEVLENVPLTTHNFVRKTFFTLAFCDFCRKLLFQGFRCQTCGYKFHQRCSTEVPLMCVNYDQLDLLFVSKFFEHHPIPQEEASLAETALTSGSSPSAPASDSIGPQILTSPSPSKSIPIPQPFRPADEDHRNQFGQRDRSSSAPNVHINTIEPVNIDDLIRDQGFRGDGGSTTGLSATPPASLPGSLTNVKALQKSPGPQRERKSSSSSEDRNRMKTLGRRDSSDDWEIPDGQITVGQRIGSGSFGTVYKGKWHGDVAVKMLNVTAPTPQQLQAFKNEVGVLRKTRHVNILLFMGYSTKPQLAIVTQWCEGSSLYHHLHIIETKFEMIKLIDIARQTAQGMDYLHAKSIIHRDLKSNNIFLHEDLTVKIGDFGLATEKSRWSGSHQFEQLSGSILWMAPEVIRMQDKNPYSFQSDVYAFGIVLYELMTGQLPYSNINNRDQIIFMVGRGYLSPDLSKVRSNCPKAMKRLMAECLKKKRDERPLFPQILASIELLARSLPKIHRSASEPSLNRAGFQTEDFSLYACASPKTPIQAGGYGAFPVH
B-Raf, sequence (P15056 whole entry): as the sequence (P15056 whole entry V600E) above, with E600V counted along it
T1 sequence (P07333 20-972): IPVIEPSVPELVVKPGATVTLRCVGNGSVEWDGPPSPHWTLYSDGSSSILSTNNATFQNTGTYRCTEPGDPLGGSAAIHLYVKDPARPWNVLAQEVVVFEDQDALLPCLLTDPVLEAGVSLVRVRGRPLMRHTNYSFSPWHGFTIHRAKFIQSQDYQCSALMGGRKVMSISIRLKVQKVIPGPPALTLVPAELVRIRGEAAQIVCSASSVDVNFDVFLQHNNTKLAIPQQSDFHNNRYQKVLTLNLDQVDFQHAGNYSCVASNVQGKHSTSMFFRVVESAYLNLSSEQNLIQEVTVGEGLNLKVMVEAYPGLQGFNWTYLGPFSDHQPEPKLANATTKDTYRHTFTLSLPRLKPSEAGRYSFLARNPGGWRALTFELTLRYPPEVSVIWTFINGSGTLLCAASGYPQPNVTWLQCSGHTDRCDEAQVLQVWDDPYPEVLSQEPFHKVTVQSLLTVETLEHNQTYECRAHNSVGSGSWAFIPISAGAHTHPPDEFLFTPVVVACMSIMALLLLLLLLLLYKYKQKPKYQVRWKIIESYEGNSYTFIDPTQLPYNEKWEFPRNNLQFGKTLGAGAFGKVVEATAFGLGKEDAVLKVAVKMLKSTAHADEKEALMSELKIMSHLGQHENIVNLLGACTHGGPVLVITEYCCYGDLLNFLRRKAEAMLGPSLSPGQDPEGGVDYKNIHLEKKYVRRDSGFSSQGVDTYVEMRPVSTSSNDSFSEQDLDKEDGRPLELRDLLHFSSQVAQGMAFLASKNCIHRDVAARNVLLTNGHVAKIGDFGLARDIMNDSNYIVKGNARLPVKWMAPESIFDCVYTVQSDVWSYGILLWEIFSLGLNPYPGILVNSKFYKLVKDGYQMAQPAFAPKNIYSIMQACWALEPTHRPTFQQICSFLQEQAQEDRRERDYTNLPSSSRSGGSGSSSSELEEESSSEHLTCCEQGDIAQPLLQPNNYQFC
c-Raf-1, sequence (P04049 whole entry): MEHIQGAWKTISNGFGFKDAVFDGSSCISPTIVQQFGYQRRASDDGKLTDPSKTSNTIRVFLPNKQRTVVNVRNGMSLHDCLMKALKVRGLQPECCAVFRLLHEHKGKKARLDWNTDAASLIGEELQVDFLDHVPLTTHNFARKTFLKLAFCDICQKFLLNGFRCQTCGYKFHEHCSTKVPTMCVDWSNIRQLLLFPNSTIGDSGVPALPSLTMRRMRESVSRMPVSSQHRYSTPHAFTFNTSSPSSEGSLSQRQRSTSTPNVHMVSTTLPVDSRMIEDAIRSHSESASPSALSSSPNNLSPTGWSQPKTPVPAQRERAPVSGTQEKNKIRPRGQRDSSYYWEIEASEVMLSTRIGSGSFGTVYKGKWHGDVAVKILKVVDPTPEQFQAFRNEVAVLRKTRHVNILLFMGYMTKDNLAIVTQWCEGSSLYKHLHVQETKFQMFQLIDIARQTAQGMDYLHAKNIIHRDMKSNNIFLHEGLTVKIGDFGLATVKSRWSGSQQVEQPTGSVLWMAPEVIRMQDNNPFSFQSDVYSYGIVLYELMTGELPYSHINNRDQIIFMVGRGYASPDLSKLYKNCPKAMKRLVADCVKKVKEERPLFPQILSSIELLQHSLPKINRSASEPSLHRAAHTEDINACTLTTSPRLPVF
Fak, sequence (Q05397 whole entry): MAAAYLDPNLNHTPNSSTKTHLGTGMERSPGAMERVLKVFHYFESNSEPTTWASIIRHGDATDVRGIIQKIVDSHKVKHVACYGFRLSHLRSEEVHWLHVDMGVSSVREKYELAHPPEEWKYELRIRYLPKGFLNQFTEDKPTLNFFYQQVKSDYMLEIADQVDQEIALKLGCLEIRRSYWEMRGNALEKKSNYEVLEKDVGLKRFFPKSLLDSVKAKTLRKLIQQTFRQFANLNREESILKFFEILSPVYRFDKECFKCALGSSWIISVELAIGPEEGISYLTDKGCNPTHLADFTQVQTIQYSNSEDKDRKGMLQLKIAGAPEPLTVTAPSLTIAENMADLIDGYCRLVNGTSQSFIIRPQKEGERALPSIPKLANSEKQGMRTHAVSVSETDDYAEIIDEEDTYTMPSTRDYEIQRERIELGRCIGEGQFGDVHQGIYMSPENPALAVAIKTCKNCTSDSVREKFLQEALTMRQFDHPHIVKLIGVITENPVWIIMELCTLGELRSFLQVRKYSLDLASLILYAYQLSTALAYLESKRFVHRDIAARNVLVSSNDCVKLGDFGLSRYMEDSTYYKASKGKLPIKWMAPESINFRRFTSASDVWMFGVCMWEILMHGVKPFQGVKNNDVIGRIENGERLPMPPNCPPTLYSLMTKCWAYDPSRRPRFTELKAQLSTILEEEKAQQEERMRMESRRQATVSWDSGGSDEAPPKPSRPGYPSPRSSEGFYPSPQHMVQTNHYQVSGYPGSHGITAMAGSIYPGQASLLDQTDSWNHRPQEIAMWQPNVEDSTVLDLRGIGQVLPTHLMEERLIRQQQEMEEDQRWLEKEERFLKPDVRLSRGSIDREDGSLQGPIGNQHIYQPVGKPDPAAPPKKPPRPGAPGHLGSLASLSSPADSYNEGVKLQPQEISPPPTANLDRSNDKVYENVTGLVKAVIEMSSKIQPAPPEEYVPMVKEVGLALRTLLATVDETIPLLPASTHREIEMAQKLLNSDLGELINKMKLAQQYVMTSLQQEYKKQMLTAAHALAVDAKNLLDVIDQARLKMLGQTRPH
T2 sequence (P10721 552-948): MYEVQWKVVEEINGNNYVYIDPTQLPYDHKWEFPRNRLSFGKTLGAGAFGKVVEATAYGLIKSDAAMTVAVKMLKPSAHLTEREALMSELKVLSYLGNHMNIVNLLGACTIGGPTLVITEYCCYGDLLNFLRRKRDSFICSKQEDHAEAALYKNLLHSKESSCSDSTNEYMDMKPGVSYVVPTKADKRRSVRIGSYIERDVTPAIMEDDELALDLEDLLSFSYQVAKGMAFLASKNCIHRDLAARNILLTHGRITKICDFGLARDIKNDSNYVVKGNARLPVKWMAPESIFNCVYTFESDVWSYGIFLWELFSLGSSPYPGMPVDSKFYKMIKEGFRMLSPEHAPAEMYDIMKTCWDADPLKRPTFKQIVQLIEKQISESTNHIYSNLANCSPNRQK

COCCOCCOc1cc(Cl)c(Cc2c[nH]c3ncc(Cl)cc23)cc1F [P-2155, 5-chloro-3-2-chloro-5-fluoro-4-[2-(2-methoxy-ethoxy)-ethoxy]-benzyl-1H-pyrrolo[2,3-b]pyridine]
≤ 10 µM: Kdr | Fms | FGFR | c-Raf-1

COCCOc1ccc(F)c(C(=O)c2c[nH]c3ncc(Cl)cc23)c1Cl [P-2159, [2-Chloro-6-fluoro-3-(2-methoxy-ethoxy)-phenyl]-(5-chloro-1H-pyrrolo[2,3-b]pyridin-3-yl)-methanone]
≤ 10 µM: Kdr | Fms | Kit | FGFR

O=C(c1c(F)ccc(OCc2ccccc2)c1F)c1c[nH]c2ncc(-c3cccnc3)cc12 [P-1467, (3-Benzyloxy-2,6-difluorophenyl)-(5-pyridin-3-yl-1H-pyrrolo[2,3-b]pyridin-3-yl)-methanone]
≤ 10 µM: Flt1 | Fms | Kit | B-Raf V600E | FGFR | B-Raf

COCCOc1ccc(F)c(C(=O)c2c[nH]c3ncccc23)c1Cl [P-2160, [2-Chloro-6-fluoro-3-(2-methoxy-ethoxy)-phenyl]-(1H-pyrrolo[2,3-b]pyridin-3-yl)-methanone]
≤ 10 µM: Kdr | Fms | Kit | FGFR

COCCOc1ccc(F)c(C(=O)c2c[nH]c3ncc(OC)cc23)c1F [P-1584, [2,6-Difluoro-3-(2-methoxy-ethoxy)-phenyl]-(5-methoxy-1H-pyrrolo[2,3-b]pyridin-3-yl)-methanone]
≤ 10 µM: Flt1 | B-Raf V600E | FGFR | B-Raf

COCCOc1ccc(F)c(C(=O)c2c[nH]c3ncc(Br)cc23)c1F [P-1453, (5-Bromo-1H-pyrrolo[2,3-b]pyridin-3-yl)-[2,6-difluoro-3-(2-methoxy-ethoxy)-phenyl]-methanone]
≤ 10 µM: Fms | Kit | B-Raf V600E | FGFR | c-Raf-1 | Fak | B-Raf

Cc1nc(C)c(COc2cccc(C(=O)c3c[nH]c4ncc(Cl)cc34)c2OCC2CC2)s1 [P-2140, (5-Chloro-1H-pyrrolo[2,3-b]pyridin-3-yl)-[2-cyclopropylmethoxy-3-(2,4-dimethyl-thiazol-5-ylmethoxy)-phenyl]-methanone]
≤ 10 µM: Fms | Kit | Btk

Fc1cc(OCc2nc3ccccc3[nH]2)c(F)cc1Cc1c[nH]c2ncc(Br)cc12 [P-2107, 2-[4-(5-Bromo-1H-pyrrolo[2,3-b]pyridin-3-ylmethyl)-2,5-difluoro-phenoxymethyl]-1H-benzoimidazole]
≤ 10 µM: Kdr | Flt1 | Fms | HGK | Kit | c-Raf-1 | TrkA

Cc1nc(C)c(COc2ccc(F)c(C(=O)c3c[nH]c4ncc(Cl)cc34)c2F)s1 [P-2162, (5-Chloro-1H-pyrrolo[2,3-b]pyridin-3-yl)-[3-(2,4-dimethyl-thiazol-5-ylmethoxy)-2,6-difluoro-phenyl]-methanone]
≤ 10 µM: Kdr | Fms | Kit | Btk

O=C(c1c(F)ccc(OCc2ccc(C(F)(F)F)nc2)c1F)c1c[nH]c2ncc(Cl)cc12 [P-2163, (5-Chloro-1H-pyrrolo[2,3-b]pyridin-3-yl)-[2,6-difluoro-3-(6-trifluoromethyl-pyridin-3-ylmethoxy)-phenyl]-methanone]
≤ 10 µM: Kdr | Fms | Kit | Btk

COc1cc(Cc2c[nH]c3ncc(Br)cc23)c(F)cc1OCc1nc2ccccc2[nH]1 [P-2181, 2-[4-(5-Bromo-1H-pyrrolo[2,3-b]pyridin-3-ylmethyl)-5-fluoro-2-methoxy-phenoxymethyl]-1H-benzoimidazole]
≤ 10 µM: Fms | HGK | Fak | TrkA

CCOc1c(OCc2ccc(N(CC)CC)nc2)cccc1C(=O)c1c[nH]c2ncccc12 [P-2143, [3-(6-Diethylamino-pyridin-3-ylmethoxy)-2-ethoxy-phenyl]-(1H-pyrrolo[2,3-b]pyridin-3-yl)-methanone]
≤ 10 µM: Fms | Btk | c-Raf-1

Fc1ccc(OCc2ccccc2)c(F)c1Cc1c[nH]c2ncc(-c3cccnc3)cc12 [P-1455, 3-(3-Benzyloxy-2,6-difluoro-benzyl)-5-pyridin-3-yl-1H-pyrrolo[2,3-b]pyridine]
≤ 10 µM: Fms | Kit | B-Raf V600E | FGFR | c-Raf-1 | Fak | B-Raf

CCOc1c(OCc2ccc(N3CCCC3)nc2)cccc1C(=O)c1c[nH]c2ncccc12 [P-2144, [2-Ethoxy-3-(6-pyrrolidin-1-yl-pyridin-3-ylmethoxy)-phenyl]-(1H-pyrrolo[2,3-b]pyridin-3-yl)-methanone]
≤ 10 µM: Fms | Btk | B-Raf

N#Cc1cnc2[nH]cc(Cc3cc(F)c(OCc4nc5ccccc5[nH]4)cc3F)c2c1 [P-2185, 3-[4-(1H-Benzoimidazol-2-ylmethoxy)-2,5-difluoro-benzyl]-1H-pyrrolo[2,3-b]pyridine-5-carbonitrile]
not listed: FGFR | Fak | Btk
≤ 10 µM: all other assays above

Cn1cc(-c2cnc3[nH]cc(Cc4cc(F)c(O)cc4F)c3c2)cn1 [P-2161, 2,5-difluoro-4-[5-(1-methyl-1H-pyrazol-4-yl)-1H-pyrrolo[2,3-b]pyridin-3-ylmethyl]-phenol]
≤ 10 µM: Kdr | Flt1 | Fms | Kit | Btk

Cc1nc(COc2ccc(F)c(C(=O)c3c[nH]c4ncc(Cl)cc34)c2F)c(C)o1 [P-2164, (5-Chloro-1H-pyrrolo[2,3-b]pyridin-3-yl)-[3-(2,5-dimethyl-oxazol-4-ylmethoxy)-2,6-difluoro-phenyl]-methanone]
≤ 10 µM: Kdr | Flt1 | Fms | Kit | B-Raf V600E | Btk | B-Raf

COc1cnc2[nH]cc(C(=O)c3c(F)ccc(OCc4ccccc4)c3F)c2c1 [P-1597, (3-Benzyloxy-2,6-difluoro-phenyl)-(5-methoxy-1H-pyrrolo[2,3-b]pyridin-3-yl)-methanone]
≤ 10 µM: Flt1 | Fms | B-Raf V600E | FGFR | B-Raf

COc1cc(Cc2c[nH]c3ncccc23)ccc1OCc1ccc(Cl)cc1F [P-1544, 3-[4-(4-Chloro-2-fluoro-benzyloxy)-3-methoxy-benzyl]-1H-pyrrolo[2,3-b]pyridine]
≤ 10 µM: Flt1 | Fms | Kit | B-Raf V600E | B-Raf

COc1cc(OCc2ccc(Cl)cc2)ccc1Cc1c[nH]c2ncccc12 [P-1450, 3-[4-(4-chloro-benzyloxy)-2-methoxy-benzyl]-1H-pyrrolo[2,3-b]pyridine]
≤ 10 µM: Fms | Kit | B-Raf V600E | Fak

COCCOc1ccc(F)c(Cc2c[nH]c3ncc(Br)cc23)c1F [P-1454, 5-Bromo-3-[2,6-difluoro-3-(2-methoxy-ethoxy)-benzyl]1H-pyrrolo[2,3-b]pyridine]
≤ 10 µM: Fms | Kit | B-Raf V600E | FGFR | c-Raf-1 | B-Raf

Clc1ccc(COc2ccc(Cc3c[nH]c4ncccc34)cc2Cl)cc1 [P-1449, 3-[3-chloro-4-(4-chloro-benzyloxy)-benzyl]-1H-pyrrolo[2,3-b]pyridine]
≤ 10 µM: Fms | Kit | B-Raf V600E | Fak

Cn1ccnc1COc1ccc(F)c(C(=O)c2c[nH]c3ncc(Cl)cc23)c1F [P-2165, (5-Chloro-1H-pyrrolo[2,3-b]pyridin-3-yl)-[2,6-difluoro-3-(1-methyl-1H-imidazol-2-ylmethoxy)-phenyl]-methanone]
≤ 10 µM: Kdr | Flt1 | Fms | Kit | B-Raf V600E | B-Raf
